Values of other authors in patent US20190135859A1, “METHOD OF MANUFACTURING A PHARMACEUTICAL COMPOSITION” (FERRING B.V., priority 2017, published 2019).
Starred links: 1 amine or outer side, 2 acyl side, 3 side chain; linkers in the order of their positions; H or OH if unused. Positions of bridges follow the written chain, without caps; N, C: chain ends. Residues, ends and D or L forms follow the SMILES beside them. X1 = O=C(CCC[*:2])[*:1]

Assays:
[1] = tested on: human oxytocin (hOT) receptor versus human V2 (hV2) receptor; conditions: ratio of EC50 values; see Table 2 in WO2009/122285
[2] = tested on: Prader-Willi Syndrome patients; conditions: after 15 days, versus placebo treated patients, as described in WO2016/044131

SMILES | hV2/hOT selectivity ratio (EC50 hV2/EC50 hOT) [1] | improvement over placebo in measurements of hyperphagia, obsessive compulsive disorder, food seeking behaviour and clinical global impression [2]
CC[C@H](C)[C@@H]1NC(=O)[C@H](Cc2ccc(O)cc2)NC(=O)[C@@H](N)CSSC[C@@H](C(=O)N2CCC[C@H]2C(=O)N[C@@H](CC(C)C)C(=O)NCC(N)=O)NC(=O)[C@H](CC(N)=O)NC(=O)[C@H](CCC(N)=O)NC1=O [Oxytocin, oxytocin] | 3 | 
CC[C@H](C)[C@@H]1NC(=O)[C@H](Cc2ccc(OC)cc2)NC(=O)CCCSC[C@@H](C(=O)N2CCC[C@H]2C(=O)N[C@@H](CC(C)C)C(=O)NCC(N)=O)NC(=O)[C@H](CC(N)=O)NC(=O)[C@H](CCC(N)=O)NC1=O [carbetocin, (1-desamino-1-monocarba-2(O-methyl)-tyrosine)oxytocin] (Y(Me)IQNCPLG-NH2; linker N-5 via X1) | 244 | statistically significant improvement
